Columns and labels:
[1] = test system: aged wild type (WT; C57BL/6) mice; assay: Histology of astrocytes (GFAP, AQP4) in CA1 hippocampus; assay type: in vivo, mouse
Experimental: Brains were collected following saline perfusion and separated by mid-sagittal slice with one-half drop fixed in freshly prepared 4% PFA. PFA was changed to 30% sucrose 24-48 hours later. A second change to 30% sucrose occurred 24 hours later. Brain tissue was sectioned or lysed and analyzed for GFAP, AQP4, or IBA1 by standard histological methods. Images were acquired using a confocal microscope or Axioscan slide scanner.
(§1) Three independent cohorts of aged wild type (WT; C57BL/6) mice between twenty to twenty-two months of age (20-22 mo) were homogenized into two (2) groups by body weight, total distance travelled in the open field test, and average velocity in the open field test. Group 1 was administered vehicle control PO daily. Group 2 was administered 10 mg/kg of the LTA4H inhibitor Compound 1 PO daily. Both groups were dosed for either 10 days or 4 weeks daily. Behavioral assays were run during the last week of dosing and animals were sacrificed at the end of the study for histological and molecular assays.
FIGS. 22-30 report the results of the histology of astrocytes. GFAP is a pan astrocytic marker that was used to measure total number and size of astrocytes as a readout for astrocyte reactivity. AQP4 is a water channel expressed in astrocyte endfeet that line the blood-brain barrier. GFAP and AQP4 are increased with age and diseases with cognitive decline and BBB impairment (Kress B T et al., Ann Neurol, 76(6):845-61 (2014), Owasil R et al., Int J Mol Sci, 21(4) (2020), and Qi L et al., Life Sci, 88(1-2):50-56)). FIG. 22 reports GFAP percent area (Mann-Whitney test. (n=10, 10)), FIG. 23 reports the number of GFAP+ cells (Mann-Whitney test. (n=10, 10)), and FIG. 24 reports the average size of GFAP+ cells (Mann-Whitney test. (n=10, 10)) in the CA1 region of the hippocampus following 10 days of dosing. FIG. 25 reports the AQP4 intensity across a 60 micron (um) long line drawn across the large descending vessels of the CA1 hippocampus after 10 days of dosing with vehicle or Compound 1.

[2] = test system: aged wild type (WT; C57BL/6) mice; assay: qPCR of hippocampal gene expression; assay type: in vivo, mouse
Source text: Brains were collected following saline perfusion and separated by mid-sagittal slice with one-half dissected into hippocampus and cortex and then snap frozen on dry ice. RNA was isolated from brain tissue using the RNAeasy Qiagen Kit according to the manufacturer's instruction, briefly, tissue was homogenized using an Omni Bead Ruptor in RLT buffer, RNA was bound to RNA isolation column, washed and eluted. Contaminating DNA was removed by DNAse digestion and cDNA was generated using the Life Technologies SuperScript III Kit. A master mix for qPCR was made using the appropriate forward and reverse primers, and SYBR green reagent or TaqMan reagent. The reaction was run on a Life Technologies QuantStudio Real-Time PCR System and analyzed using the std ddCT protocol on the QuantStudio6 software.
as §1

aged C57BL6 mice [3] = assay: Nesting; assay type: in vivo, mouse; details: 10 days of dosing
Experimental: All nesting material was removed from home cage and mice were given 2 fresh nestlets 12-18 hours prior to scoring. The nest was carefully scored on a scale of 0-5 by an experimenter blinded to treatment group: 0 undisturbed, 1 disturbed, 2 flat, 3 cup, 4 incomplete dome, 5 complete dome.

[4] = test system: LTA4H hydrolysis activity in human whole blood; assay: Ex Vivo LTB4 Assay, human blood; assay type: cell-based; details: human whole blood incubated with compound
Experimental: Whole blood was incubated with Compound 1 or vehicle and then a calcium ionophore (Calcimycin, A23187), or 10% DMSO. LTB4 levels in plasma were measured using ELISA.
FIGS. 36-37 report the results of ex vivo target engagement assays with Compound 1 in human and mouse plasma. Whole blood from human or mouse was incubated with vehicle or Compound 1, following by a calcium ionophore stimulation. Plasma was generated and LTB4 levels were measured using ELISA. LTB4 is the product of LTA4H hydrolysis so this assay reports on LTA4H enzymatic activity.

LTA4H = LTA4H (Mus musculus (Mouse), UniProt P24527); assay: LTB4 Target Engagement Assay (in vivo dosing, calcimycin stimulated blood); details: for LTB4 levels in calcimycin stimulated plasma: aged mice
Sequence of LTA4H (P24527 whole entry): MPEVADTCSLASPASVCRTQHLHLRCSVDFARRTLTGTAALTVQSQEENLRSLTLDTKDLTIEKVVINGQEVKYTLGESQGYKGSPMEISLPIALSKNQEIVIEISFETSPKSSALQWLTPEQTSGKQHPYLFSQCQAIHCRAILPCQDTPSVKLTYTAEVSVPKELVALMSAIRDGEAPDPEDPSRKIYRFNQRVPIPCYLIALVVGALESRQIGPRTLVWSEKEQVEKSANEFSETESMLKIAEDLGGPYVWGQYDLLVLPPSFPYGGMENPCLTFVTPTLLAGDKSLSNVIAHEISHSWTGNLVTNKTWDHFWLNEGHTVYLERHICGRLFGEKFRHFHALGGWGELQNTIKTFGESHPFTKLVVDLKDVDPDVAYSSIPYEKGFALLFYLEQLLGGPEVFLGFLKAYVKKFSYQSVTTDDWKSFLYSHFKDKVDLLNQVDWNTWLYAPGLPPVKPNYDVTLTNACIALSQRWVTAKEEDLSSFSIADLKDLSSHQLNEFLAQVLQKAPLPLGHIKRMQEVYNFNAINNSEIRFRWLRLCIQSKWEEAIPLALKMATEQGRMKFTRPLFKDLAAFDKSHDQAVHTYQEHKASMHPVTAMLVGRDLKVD
Experimental: Whole blood was collected by cardiac puncture using heparin as an anti-coagulant. 160 μL of whole blood was collected in duplicate for each mouse and incubated for 15 minutes in 37° C./5% CO2. During this time a 0.1 mM calcimycin stock was made by diluting 10 mM calcimycin (Sigma C7522) formulated in DMSO into PBS. Control solution was made by diluting the same volume of DMSO in PBS. Both solutions were sonicated for 10 minutes in a 37° C. water bath. 40 μL of 0.1 mM calcimycin (stimulated) or control solution (unstimulated) was added to each well of whole blood and incubated at 37° C./5% CO2 for 30 minutes. Whole blood was spun for 10 minutes at 1000×g to separate out plasma. LTB4 levels were detected by running an ELISA on the collected stimulated and unstimulated plasma diluted 1:10 (Enzo Life Sciences, ADI-901-068). The ELISA plates were read on a BMG LABTECH CLARIOstar plate reader at 405 nm.
FIGS. 60-62 report the results of in vivo target engagement assays with Compound 1 in mouse plasma. Whole blood from mice dosed with Compound 1 for 10-day FIG. 60 or 4 weeks FIG. 61 was incubated with a calcium ionophore to stimulate LTB4 release. Plasma was generated and LTB4 levels were measured using ELISA. LTB4 is the product of LTA4H hydrolysis so this assay reports on LTA4H enzymatic activity.

aged mice = assay: CA1 synapse density by histology; assay type: in vivo, mouse; details: preliminary data, pre- and post-synaptic protein staining
Body weight of aged mice = assay type: in vivo, mouse
Experimental: as §1

aged C57BL6 mice [5] = assay: Rotarod; assay type: in vivo, mouse; details: 19 days of dosing
Experimental: Mice were trained by allowing to run on the rotarod at 5 RPM speed setting on the i-Therm CTR-44 Rotarod for 5 minutes, if the mouse fell off it was put back on until it was able to complete minutes without falling off. After 15 minutes, if the mouse is unable to stay on the rotarod for a continuous 5 minutes, the mouse is excluded from analysis. Mice were then given 3 trials where the speed was increased from 5 RPM to 40 RPM over 90 seconds; the time at which the mouse fell off was recorded for each trial. Inter-trial interval is at least 15 minutes to allow the mice adequate rest. The rotarod is cleaned with 70% ethanol between trials.

- nesting building score (aged C57BL6 mice [3]): no change in nesting building score
- LTB4 levels in calcimycin stimulated plasma (LTA4H; 4 weeks of dosing): inhibition of LTA4H
- LTB4 levels in calcimycin stimulated plasma (LTA4H; 10 days of dosing): inhibition of LTA4H
SMILES: O=C(O)C1CCN(Cc2ccc([C@H]3COc4ccccc4O3)cc2)CC1 [Example 1, 1-{4-[(2S)-2,3-dihydro-1,4-benzodioxin-2-yl]benzyl}piperidine-4-carboxylic acid]
- AQP4 intensity across large descending vessels of CA1 hippocampus ([1]; 4 weeks of treatment): reduction in the AQP4 intensity
- GFAP percent thresholded area, CA1 ([1]; 4 weeks of treatment): significant reduction GFAP percent thresholded area
- total GFAP+ cell number, CA1 ([1]; 4 weeks of treatment): did not change
- AQP4 intensity across large descending vessels of CA1 hippocampus ([1]; 10 days of dosing): trending reduction in AQP4 intensity
- dcx hippocampal gene expression ([2]; 4 weeks of dosing): increased dcx hippocampal gene expression
- h2d1 hippocampal gene expression ([2]; 10 days and 4 weeks of dosing): trends towards reduced h2d1 hippocampal gene expression
- creb1 hippocampal gene expression ([2]; 10 days of dosing): increased creb1 hippocampal gene expression
- egr1 hippocampal gene expression ([2]; 10 days of dosing): increased egr1 hippocampal gene expression
- iba1 hippocampal gene expression ([2]; 10 days of dosing): trends towards reduced iba1 hippocampal gene expression
- il1b hippocampal gene expression ([2]; 10 days of dosing): trends towards reduced il1b hippocampal gene expression
- LTB4 plasma levels after calcium ionophore stimulation [4]: reduces LTB4 plasma levels to unstimulated levels
- LTB4 inhibition, compound made for 3 independent studies (LTA4H; young mice, 2 hours after a single dose): no difference in the amount of inhibition across the 3 independent studies
- synapse density in the CA1 region of the hippocampus (aged mice): trends towards increasing synapse density
- body weight (Body weight of aged mice; 4 weeks of dosing, first cohort): no change in body weight
- body weight (Body weight of aged mice; 4 weeks of dosing, second cohort): no change in body weight
- body weight (Body weight of aged mice; 4 weeks of dosing, third cohort): no change in body weight
- body weight (Body weight of aged mice; 10 days of dosing, first cohort): no change in body weight
- body weight (Body weight of aged mice; 10 days of dosing, second cohort): no change in body weight
- body weight (Body weight of aged mice; 10 days of dosing, third cohort): no change in body weight
- average time before falling on the rotarod (aged C57BL6 mice [5]): no change in average time before falling

Source: patent US11957671B2, “Benzodioxane modulators of leukotriene A4 hydrolase (LTA4H) for prevention and treatment of aging-associated diseases” (Alkahest, Inc., priority 2021, dated 2024)
